From patent US10173974B1, “Natural product-based synthesis of novel anti-infective isothiocyanate- and isoselenocyanate-functionalized amphilectane diterpenes” (priority 2015, dated 2019)
In brackets after ≈: the same amount, converted by molar mass. Read-outs that look alike come from different tables or passages of the source.

Experiments:
[1] = tested on: Vero cell line ATCC CRL-1586
[2] = tested on: P. falciparum 3D7 (chloroquine-sensitive); assay: SYBR Green parasite proliferation assay, P. falciparum 3D7 strain; format: cell-based, Plasmodium falciparum
[3] = tested on: P. falciparum Dd2 (drug resistant); assay: SYBR Green parasite proliferation assay, P. falciparum Dd2 strain; format: cell-based, Plasmodium falciparum
Mtb H37Rv (ATCC 27 294) = assay: Microplate Alamar blue assay (MABA), antitubercular activity; format: cell-based, Mycobacterium tuberculosis; conditions: for MABA MIC: Mtb H37Rv
in vitro = conditions: African green monkey
[4] = P. falciparum 3D7 (chloroquine-sensitive), 72 h incubation, in vitro growth inhibition
[5] = P. falciparum Dd2 (drug resistant), 72 h incubation, in vitro growth inhibition

8-Isothiocyano-15-isoselenocyano-11(20)-amphilectene (3) and 8-Isoselenocyano-15-isothiocyano-11(20)-amphilectene (4) [Compound 3 and 4]
CC50 [1]: 78100 nM

[C-]#[N+]C(C)(C)CC1CC(C)C2CCC(C)C3([N+]#[C-])CCC(=C)C1C23 (single isomer, unassigned; (-)) [Compound 1, (−)-8,15-diisocyano-11(20)-amphilectene, reference compound]
IC50 [2, 4]: 1.2 nM | IC50 [3, 5]: 3.1 nM | MABA MIC (Mtb H37Rv (ATCC 27 294)): 9.8 µM

CCN(CC)CCCC(C)Nc1ccnc2cc(Cl)ccc12 (centres unmarked) [CQ, chloroquine, reference compound]
IC50 ([2]; Plasmodium falciparum, P. falciparum 3D7 (chloroquine-sensitive), 72 h incubation, in vitro growth inhibition): 10.9 nM | IC50 ([3]; Plasmodium falciparum, P. falciparum Dd2 (drug resistant), 72 h incubation, in vitro growth inhibition): 51.9 nM

C=C1CC[C@@]2(N=C=S)[C@H]3[C@H](CC[C@@H]2C)[C@@H](C)C[C@@H](CC(C)(C)N=C=S)[C@H]13 [Compound 2, 8,15-Diisothiocyano-11(20)-amphilectene]
IC50 [2, 4]: 11800 nM | IC50 [3, 5]: 11600 nM | MABA MIC (Mtb H37Rv (ATCC 27 294)): 99.1 µM

C=C1CC[C@@]2(N=C=[Se])[C@H]3[C@H](CC[C@@H]2C)[C@@H](C)C[C@@H](CC(C)(C)N=C=[Se])[C@H]13 [Compound 5, 8,15-Diisoselenocyano-11(20)-amphilectene]
IC50 [2, 4]: 2.5 nM | IC50 [3, 5]: 6.6 nM | MABA MIC (Mtb H37Rv (ATCC 27 294)): 3.9 µM

C=C(C)C[C@@H]1C[C@H](C)[C@H]2CC[C@H](C)[C@@]3(N=C=[Se])CCC(=C)[C@@H]1[C@H]23 [Compound 6, 8-Isoselenocyanoamphilecta-11(20),15-diene]
IC50 [2]: 188 nM | IC50 [3]: 149 nM | MABA MIC (Mtb H37Rv (ATCC 27 294)): 2.1 µM

CO[C@H]1/C=C/O[C@@]2(C)Oc3c(C)c(O)c4c(O)c(c(/C=N/N5CCN(C)CC5)c(O)c4c3C2=O)NC(=O)/C(C)=C\C=C\[C@H](C)[C@H](O)[C@@H](C)[C@@H](O)[C@@H](C)[C@H](OC(C)=O)[C@@H]1C [RMP, rifampicin, reference compound]
MIC (Mtb H37Rv (ATCC 27 294); Mycobacterium tuberculosis, read-out: MABA MIC): 0.09 µM (≈ 0.0741 µg/mL) | CC50 (in vitro): > 100000 nM
